According to patent US11154529B2, “Phosphaplatin liquid formulations” (Phosplatin Therapeutics Inc., priority 2016, dated 2021):

Test: Ready-to-use formulation stability at 25° C./60% RH, 5 mg/mL (R,R)-pyrodach-2 in 10 mM Potassium Phosphate Buffer at pH 7.2, 10 mL vials
Assay type: physicochemical
Description: A scalable and commercially viable process for the manufacture of a ready-to-use formulation of (R,R)-pyrodach-2 in 10 mM buffer adjusted to a pH of 7.0-7.5 comprises the steps of: a) preparing a 10 mM aqueous solution of buffer; b) adding sufficient hydroxide base to effect neutralization of the added (R,R)-pyrodach-2 to reach a pH of about 7; c) adding (R,R)-pyrodach-2 and allowing it to dissolve; d) if necessary adding additional hydroxide to adjust the pH into a range of about 7.0-7.5; and e) filtering the solution under sterile conditions, filling the solution into glass vials, and covering it with a stopper and/or a cap. Stability data on two large batches of 5 mg/mL (R,R)-pyrodach-2 in 10 mM potassium phosphate buffer were generated. One such batch at pH=7.2 was evaluated at both 25° C./60% RH and refrigerated (2-8° C.) conditions, with data summarized in Table 4 and Table 5, respectively. […] Similar observations have been made for the ready-to-use liquid formulation at pH7.4, as illustrated in Table 6 and Table 7.
• Transfer 4564.6 mg±0.5 mg of potassium phosphate dibasic, trihydrate to a 2-L volumetric flask. • Fill flask to approximately 75% volume with water, swirl as needed to dissolve all solids. • Volumetrically transfer 32.0 mL of 1N KOH to flask. • Dilute flask to volume with water and mix well. • Record pH of final solution. This is the diluent. • Transfer 7653.1 mg±0.5 mg of (R,R)-pyrodach-2 to a compounding vessel. • Transfer 1500 mL of the diluent to the vessel and stir to dissolve solids. • Record pH of final solution. • Pass entire solution through a 0.22 μm sterile filter membrane into a sterile collection vessel. • Calculate (R,R)-pyrodach-2 solution concentration
To a […] glass beaker equipped with mechanical mixer was add 24645.5 g of sterile water for injection. With agitation 47.03 gm of dibasic potassium phosphate USP was added and the solids allowed to dissolve. To the stirred solution was added 253.8 gm of 1.00 N potassium hydroxide. Sterile water for injection USP (900.0 gm) was used as a rinse to facilitate both additions. With vigorous agitation, (R,R)-pyrodach-2 (201.87 gm) was slowly added and agitation continued until all of the solids dissolved. Sterile water for injection USP (900.0 gm) was used as a rinse to facilitate the addition. The pH was determined to be 6.7. A total of 85 mL of 1.00 N potassium hydroxide was added in 5.0 mL aliquots to adjust the pH to 7.3. The solution was sterile filtered through 0.22μ Millipore Millipack filter and aseptically filled, 10 ml top a vial in 10 mL in 10 cc Wheaton clear molded vails, stoppered with a 20 mm stopper and crimp seal capped.

## O=P1(O)OP(=O)(O)[O][Pt]2([NH][C@@H]3CCCC[C@H]3[NH]2)[O]1 (stereo partly drawn) [(R,R)-pyrodach-2, (R,R)-trans-1,2-cyclohexanediamine-(dihydrogenpyrophosphato)platinum(II)]
1 Month
  (DACH) Pt-diaquo (~RRT 0.3): 0.15%
  (DACH) Pt-monoaquo (~RRT 0.7): 0.75%
  Assay (Potency): 96.5%
  PT-112 Dimer (~RRT 4.0): 0.33%
  RRT 0.58: 0.13%
  RRT 0.67: 0.06%
  RRT 3.1-3.2: 0.22%
  Total Related Substances: 2%
  pH: 7.2
2 Month
  (DACH) Pt-diaquo (~RRT 0.3): 0.09%
  (DACH) Pt-monoaquo (~RRT 0.7): 0.96%
  Assay (Potency): 99.5%
  PT-112 Dimer (~RRT 4.0): 0.36%
  RRT 0.50: 0.05%
  RRT 0.58: 0.15%
  RRT 0.67: 0.09%
  RRT 3.1-3.2: 0.32%
  RRT 3.65: 0.08%
  Total Related Substances: 2%
  pH: 7.2
3 Month
  (DACH) Pt-diaquo (~RRT 0.3): 0.19%
  (DACH) Pt-monoaquo (~RRT 0.7): 0.73%
  Assay (Potency): 98.2%
  PT-112 Dimer (~RRT 4.0): 0.37%
  RRT 0.50: 0.08%
  RRT 0.58: 0.18%
  RRT 0.67: 0.06%
  RRT 3.1-3.2: 0.37%
  RRT 3.65: 0.11%
  Total Related Substances: 2%
  pH: 7.3
4 Month
  (DACH) Pt-diaquo (~RRT 0.3): 0.13%
  (DACH) Pt-monoaquo (~RRT 0.7): 1.05%
  Assay (Potency): 97.9%
  PT-112 Dimer (~RRT 4.0): 0.36%
  RRT 0.50: 0.09%
  RRT 0.58: 0.20%
  RRT 0.67: 0.07%
  RRT 3.1-3.2: 0.38%
  RRT 3.46: 0.05%
  RRT 3.65: 0.13%
  Total Related Substances: 2%
  pH: 7.1
6 Month
  (DACH) Pt-diaquo (~RRT 0.3): 0.15%
  (DACH) Pt-monoaquo (~RRT 0.7): 1.03%
  Assay (Potency): 97.5%
  PT-112 Dimer (~RRT 4.0): 0.37%
  RRT 0.50: 0.15%
  RRT 0.58: 0.21%
  RRT 0.67: 0.07%
  RRT 0.86: 0.05%
  RRT 3.1-3.2: 0.40%
  RRT 3.65: 0.24%
  RRT 4.97: 0.05%
  Total Related Substances: 3%
  pH: 7.2
6 Month, first value
  Particulate Matter (Light Obscuration): 20 particles particles per container
6 Month, second value
  Particulate Matter (Light Obscuration): 3 particles particles per container
9 Month
  (DACH) Pt-diaquo (~RRT 0.3): 0.16%
  (DACH) Pt-monoaquo (~RRT 0.7): 1.10%
  Assay (Potency): 96.8%
  PT-112 Dimer (~RRT 4.0): 0.39%
  RRT 0.50: 0.19%
  RRT 0.58: 0.27%
  RRT 0.67: 0.10%
  RRT 0.86: 0.05%
  RRT 3.1-3.2: 0.30%
  RRT 3.65: 0.39%
  RRT 4.97: 0.08%
  Total Related Substances: 3%
  pH: 7.2
12 Month
  (DACH) Pt-diaquo (~RRT 0.3): 0.18%
  (DACH) Pt-monoaquo (~RRT 0.7): 0.91%
  Assay (Potency): 96.8%
  PT-112 Dimer (~RRT 4.0): 0.33%
  RRT 0.41: 0.05%
  RRT 0.50: 0.26%
  RRT 0.58: 0.26%
  RRT 0.67: 0.13%
  RRT 0.86: 0.05%
  RRT 3.1-3.2: 0.44%
  RRT 3.65: 0.52%
  RRT 4.97: 0.20%
  Total Related Substances: 3%
  pH: 7.2
12 Month, first value
  Particulate Matter (Light Obscuration): 36 particles particles per container
12 Month, second value
  Particulate Matter (Light Obscuration): 2 particles particles per container
15 Month
  (DACH) Pt-diaquo (~RRT 0.3): 0.14%
  (DACH) Pt-monoaquo (~RRT 0.7): 0.84%
  Assay (Potency): 98.1%
  PT-112 Dimer (~RRT 4.0): 0.29%
  RRT 0.41: 0.07%
  RRT 0.50: 0.37%
  RRT 0.58: 0.26%
  RRT 0.67: 0.07%
  RRT 3.1-3.2: 0.41%
  RRT 3.65: 0.63%
  RRT 4.97: 0.28%
  Total Related Substances: 3%
  pH: 7.3
18 Month
  (DACH) Pt-diaquo (~RRT 0.3): 0.14%
  (DACH) Pt-monoaquo (~RRT 0.7): 1.04%
  Assay (Potency): 99.0%
  PT-112 Dimer (~RRT 4.0): 0.30%
  RRT 0.41: 0.06%
  RRT 0.50: 0.36%
  RRT 0.58: 0.29%
  RRT 0.67: 0.11%
  RRT 0.86: 0.14%
  RRT 3.1-3.2: 0.40%
  RRT 3.65: 0.75%
  RRT 4.97: 0.43%
  Total Related Substances: 4%
  pH: 7.2
24 Month
  (DACH) Pt-diaquo (~RRT 0.3): 0.15%
  (DACH) Pt-monoaquo (~RRT 0.7): 0.83%
  Assay (Potency): 97.5%
  PT-112 Dimer (~RRT 4.0): 0.36%
  RRT 0.41: 0.12%
  RRT 0.46: 0.10%
  RRT 0.50: 0.70%
  RRT 0.58: 0.17%
  RRT 0.67: 0.07%
  RRT 3.1-3.2: 0.41%
  RRT 3.46: 0.07%
  RRT 3.65: 1.24%
  RRT 4.97: 0.73%
  Total Related Substances: 5%
  pH: 7.2
24 Month, first value
  Particulate Matter (Light Obscuration): 81 particles particles per container
24 Month, second value
  Particulate Matter (Light Obscuration): 4 particles particles per container
Initial
  (DACH) Pt-diaquo (~RRT 0.3): 0.16%
  (DACH) Pt-monoaquo (~RRT 0.7): 0.98%
  Assay (Potency): 99.8%
  PT-112 Dimer (~RRT 4.0): 0.19%
  RRT 0.58: 0.13%
  RRT 0.67: 0.05%
  Total Related Substances: 2%
  pH: 7.2
Initial, first value
  Particulate Matter (Light Obscuration): 219 particles particles per container
Initial, second value
  Particulate Matter (Light Obscuration): 11 particles particles per container
